1 molecule from US7132504B2, “Hepatitis C virus inhibitors” (Bristol-Myers Squibb Company, priority 2003, dated 2006) can be followed below.

Assay [1] addresses T1, NS3/4A protease complex, J4L6S strain (Hepatitis C virus genotype 1b, UniProt O92972, C1454S/C1711G).
T1 construct: DNA encoding the recombinant HCV NS3/4A protease complex (amino acids 1027 to 1711) for these strains; inferred from pET21b vector and Ni-NTA purification; made in house; host or cells: Escherichia coli BL21 (DE3), pET21b
Description: Recombinant HCV NS3/4A protease complex FRET peptide assay, J4L6S strain. In kind it is biochemical, HCV genotype 1b (J4L6S). From the text:
(§1) The purpose of this in vitro assay was to measure the inhibition of HCV NS3 protease complexes, derived from the BMS strain, H77 strain or J416S strain, as described below, by compounds of the present invention. This assay provides an indication of how effective compounds of the present invention would be in inhibiting HCV proteolytic activity.
(§2) Serum from an HCV-infected patient was obtained from Dr. T. Wright, San Francisco Hospital. An engineered full-length cDNA (compliment deoxyribonucleic acid) template of the HCV genome (BMS strain) was constructed from DNA fragments obtained by reverse transcription-PCR (RT-PCR) of serum RNA (ribonucleic acid) and using primers selected on the basis of homology between other genotype 1a strains. From the determination of the entire genome sequence, a genotype 1a was assigned to the HCV isolate according to the classification of Simmonds et al. (See P Simmonds, K A Rose, S Graham, S W Chan, F McOmish, B C Dow, E A Follett, P L Yap and H Marsden, J. Clin. Microbiol., 31(6), 1493–1503 (1993)). […]

Assay [2] has as its target T2, NS3/4A protease complex, H77 strain (Hepatitis C virus genotype 1a, UniProt P27958, C1454S/C1711G).
T2 construct: DNA encoding the recombinant HCV NS3/4A protease complex (amino acids 1027 to 1711) for these strains; inferred from pET21b vector and Ni-NTA purification; made in house; host or cells: Escherichia coli BL21 (DE3), pET21b
The experiment in a line: Recombinant HCV NS3/4A protease complex FRET peptide assay, H77 strain. In kind it is biochemical, HCV genotype 1a (H77).
Excerpt: as §1, §2

For assay [3], the target named is T3, porcine pancreatic elastase (PPE) (Sus scrofa, UniProt P00772).
T3 construct: purchased Sigma
The experiment in a line: Specificity assay, porcine pancreatic elastase. In kind it is biochemical. Particulars: 2 h enzyme-inhibitor pre-incubation. As for the experimental part:
The specificities of compounds of the present invention were determined against a variety of serine proteases: human neutrophil elastase (HNE), porcine pancreatic elastase (PPE) and human pancreatic chymotrypsin and one cysteine protease: human liver cathepsin B. In all cases a 96-well plate format protocol using colorimetric p-nitroaniline (pNA) substrate specific for each enzyme was used as described previously (PCT Patent Application No. WO 00/09543) with some modifications to the serine protease assays. All enzymes were purchased from Sigma while the substrates were from Bachem.
Each assay included a 2 h enzyme-inhibitor pre-incubation at room temperature followed by addition of substrate and hydrolysis to ˜30% conversion as measured on a Spectramax Pro microplate reader. Compound concentrations varied from 100 to 0.4 μM depending on their potency. […]
The percentage of inhibition was calculated using the formula: [1−((UVinh−UVblank)/(UVctl−UVblank))]×100 […]

T2 sequence (P27958 1027-1711 C1454S/C1711G, one chain of several): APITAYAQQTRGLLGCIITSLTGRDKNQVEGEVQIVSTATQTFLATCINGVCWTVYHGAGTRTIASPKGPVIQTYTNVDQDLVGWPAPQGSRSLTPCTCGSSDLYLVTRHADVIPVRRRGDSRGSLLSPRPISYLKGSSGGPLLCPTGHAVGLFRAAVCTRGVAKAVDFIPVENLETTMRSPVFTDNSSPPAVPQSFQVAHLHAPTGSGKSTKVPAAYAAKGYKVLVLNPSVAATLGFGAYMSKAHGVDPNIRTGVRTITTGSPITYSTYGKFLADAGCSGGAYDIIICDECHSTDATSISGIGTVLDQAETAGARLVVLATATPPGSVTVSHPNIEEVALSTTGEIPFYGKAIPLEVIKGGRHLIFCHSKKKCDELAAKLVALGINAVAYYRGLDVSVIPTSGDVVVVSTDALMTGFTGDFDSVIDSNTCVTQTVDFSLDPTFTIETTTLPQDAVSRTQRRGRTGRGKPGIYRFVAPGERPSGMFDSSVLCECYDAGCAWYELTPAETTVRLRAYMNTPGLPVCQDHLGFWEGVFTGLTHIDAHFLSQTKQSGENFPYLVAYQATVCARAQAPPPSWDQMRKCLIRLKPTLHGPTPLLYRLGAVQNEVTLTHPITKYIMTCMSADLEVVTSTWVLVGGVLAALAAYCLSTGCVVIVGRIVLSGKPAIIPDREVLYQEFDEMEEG
T3 sequence (P00772 27-266): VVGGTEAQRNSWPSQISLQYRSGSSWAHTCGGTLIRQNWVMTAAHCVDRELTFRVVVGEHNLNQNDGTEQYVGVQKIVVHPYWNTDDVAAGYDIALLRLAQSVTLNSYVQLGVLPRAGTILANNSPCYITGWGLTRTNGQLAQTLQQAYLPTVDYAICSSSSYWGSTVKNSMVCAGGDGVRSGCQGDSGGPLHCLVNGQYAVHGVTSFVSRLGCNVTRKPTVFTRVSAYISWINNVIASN
T1 sequence (O92972 1027-1711 C1454S/C1711G, one chain of several): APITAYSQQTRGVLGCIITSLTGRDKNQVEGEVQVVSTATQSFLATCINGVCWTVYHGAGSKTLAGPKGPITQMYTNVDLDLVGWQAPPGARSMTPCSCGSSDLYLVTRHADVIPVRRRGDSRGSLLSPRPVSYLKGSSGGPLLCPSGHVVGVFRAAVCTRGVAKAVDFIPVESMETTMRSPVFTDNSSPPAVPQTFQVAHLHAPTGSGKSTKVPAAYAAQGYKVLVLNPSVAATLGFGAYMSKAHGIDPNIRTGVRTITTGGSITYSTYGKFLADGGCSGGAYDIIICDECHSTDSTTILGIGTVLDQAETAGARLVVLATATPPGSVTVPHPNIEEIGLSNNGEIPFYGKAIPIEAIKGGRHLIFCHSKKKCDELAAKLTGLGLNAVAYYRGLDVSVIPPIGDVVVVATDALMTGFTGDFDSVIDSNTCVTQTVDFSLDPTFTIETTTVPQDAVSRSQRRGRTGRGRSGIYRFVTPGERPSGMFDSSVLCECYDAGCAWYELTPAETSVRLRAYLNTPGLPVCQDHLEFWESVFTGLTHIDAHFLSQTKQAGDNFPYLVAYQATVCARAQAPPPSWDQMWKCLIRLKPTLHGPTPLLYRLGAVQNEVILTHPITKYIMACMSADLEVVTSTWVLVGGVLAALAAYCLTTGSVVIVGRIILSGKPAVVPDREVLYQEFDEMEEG

Regarding `C=CC1C[C@]1(NC(=O)[C@@H]1C[C@@H](Oc2cc(-c3ccccc3)nc3cc(OC)ccc23)CN1C(=O)[C@@H](NC(=O)OC)C(C)(C)C)C(=O)NS(=O)(=O)N(C)Cc1ccccc1` (stereo partly drawn) [Compound 9], the results for the 50% inhibitory concentration (IC50) in assay [1], in assay [2] and in assay [3] were 41 nM, 62 nM and > 200000 nM, respectively.

A word on the IC50: it is the concentration needed to halve the response being measured.
